From paper PMC10931632, “Inhibition of Insulin-Regulated Aminopeptidase by Imidazo [1,5-α]pyridines—Synthesis and Evaluation” (International Journal of Molecular Sciences, 2024)
In brackets after ≈: the same amount, converted by molar mass. Entries after “also recorded” stand apart in the source; their conditions may differ.

What was measured:
human IRAP = biological target: T1, human IRAP (Homo sapiens, UniProt Q9UIQ6); test: Inhibition of human membrane-bound IRAP overexpressed in HEK293 cells (hIRAP); type: biochemical
T1 construct: expressed in transfected cells
T1 sequence (Q9UIQ6 whole entry): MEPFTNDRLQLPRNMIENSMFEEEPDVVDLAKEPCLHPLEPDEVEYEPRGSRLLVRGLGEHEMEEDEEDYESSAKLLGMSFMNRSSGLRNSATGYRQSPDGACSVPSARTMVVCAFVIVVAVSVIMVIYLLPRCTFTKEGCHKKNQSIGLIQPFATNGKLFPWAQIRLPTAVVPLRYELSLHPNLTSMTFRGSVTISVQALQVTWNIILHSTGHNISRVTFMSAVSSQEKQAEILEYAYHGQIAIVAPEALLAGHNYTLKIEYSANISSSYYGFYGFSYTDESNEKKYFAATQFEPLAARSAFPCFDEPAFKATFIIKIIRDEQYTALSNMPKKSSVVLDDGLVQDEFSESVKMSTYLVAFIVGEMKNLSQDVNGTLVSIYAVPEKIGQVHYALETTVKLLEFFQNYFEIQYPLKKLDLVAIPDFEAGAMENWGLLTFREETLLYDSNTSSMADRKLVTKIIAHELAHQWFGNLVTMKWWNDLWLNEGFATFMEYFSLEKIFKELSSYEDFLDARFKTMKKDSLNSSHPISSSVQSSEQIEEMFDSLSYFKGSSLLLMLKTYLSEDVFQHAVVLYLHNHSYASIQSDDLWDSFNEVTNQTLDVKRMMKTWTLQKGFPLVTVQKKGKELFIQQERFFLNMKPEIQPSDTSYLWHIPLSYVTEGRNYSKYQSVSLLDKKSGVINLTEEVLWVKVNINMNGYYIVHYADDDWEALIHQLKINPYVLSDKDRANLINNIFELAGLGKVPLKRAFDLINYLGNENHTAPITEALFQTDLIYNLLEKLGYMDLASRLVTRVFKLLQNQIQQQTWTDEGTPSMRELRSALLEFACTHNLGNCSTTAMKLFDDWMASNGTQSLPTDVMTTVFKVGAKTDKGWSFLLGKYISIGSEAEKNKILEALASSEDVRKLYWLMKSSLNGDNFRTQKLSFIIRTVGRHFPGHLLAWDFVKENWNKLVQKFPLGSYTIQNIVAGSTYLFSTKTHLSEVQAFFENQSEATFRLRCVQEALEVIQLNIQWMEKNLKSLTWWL
Description: (§1) Human IRAP and APN were overexpressed, as previously described.
(§2) Membrane preparations from frozen CHO cells and HEK293T cells with overexpressed IRAP and APN were prepared and handled as previously described.
(§3) Details for the assay used to evaluate the inhibitory activity of the compounds have already been published.

IRAP [1] = biological target: T2, IRAP (Cricetulus griseus, UniProt A0A8C2M8D5); test: Mechanism of action enzyme kinetics with variable L-Leu-pNA substrate on IRAP from CHO cell membranes; type: biochemical, Chinese hamster; details: Vmax decreases, Km constant
T2 sequence (A0A8C2M8D5 1-1025): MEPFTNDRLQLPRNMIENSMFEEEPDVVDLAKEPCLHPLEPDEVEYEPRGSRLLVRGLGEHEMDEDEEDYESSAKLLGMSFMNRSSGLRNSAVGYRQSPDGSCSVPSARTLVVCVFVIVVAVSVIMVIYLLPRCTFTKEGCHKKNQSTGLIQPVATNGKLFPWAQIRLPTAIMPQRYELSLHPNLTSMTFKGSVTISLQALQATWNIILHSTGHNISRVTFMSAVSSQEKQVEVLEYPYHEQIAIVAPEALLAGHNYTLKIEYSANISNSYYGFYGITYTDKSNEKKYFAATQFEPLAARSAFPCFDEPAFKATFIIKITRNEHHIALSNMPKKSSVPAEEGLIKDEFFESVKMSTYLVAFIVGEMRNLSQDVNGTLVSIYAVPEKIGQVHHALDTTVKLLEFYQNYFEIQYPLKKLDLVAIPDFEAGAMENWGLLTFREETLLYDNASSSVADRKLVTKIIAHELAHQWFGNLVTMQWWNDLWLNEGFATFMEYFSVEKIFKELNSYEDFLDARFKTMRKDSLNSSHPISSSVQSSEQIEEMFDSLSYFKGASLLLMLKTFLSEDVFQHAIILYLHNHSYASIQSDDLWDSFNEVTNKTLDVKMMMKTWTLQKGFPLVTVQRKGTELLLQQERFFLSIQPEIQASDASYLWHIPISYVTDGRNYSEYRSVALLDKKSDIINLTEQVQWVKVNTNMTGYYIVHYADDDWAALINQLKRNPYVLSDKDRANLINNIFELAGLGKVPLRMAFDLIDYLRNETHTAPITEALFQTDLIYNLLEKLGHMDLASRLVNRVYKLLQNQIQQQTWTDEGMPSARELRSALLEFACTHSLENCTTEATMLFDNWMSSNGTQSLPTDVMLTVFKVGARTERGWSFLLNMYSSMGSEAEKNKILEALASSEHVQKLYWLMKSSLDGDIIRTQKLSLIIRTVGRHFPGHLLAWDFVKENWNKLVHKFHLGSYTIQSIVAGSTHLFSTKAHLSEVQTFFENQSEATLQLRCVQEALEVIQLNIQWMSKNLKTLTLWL
Description: The design of the enzyme kinetics experiments followed that of the inhibitory experiments, except for the substrate concentrations that were variable at 0.1, 0.2, 0.3, 0.4, 0.8, 1.6 and 2.4 mM. The serial dilution of the compound stock solution was reproduced across all eight rows of a set of four 96-well plates. Four technical replicates were obtained at each substrate concentration by adding the same substrate solution to the top or bottom four rows of each 96-well plate, i.e., a total of four plates were used for this experiment, including a no-substrate control. The absorbance of these plates was then measured every 10 min to follow the enzymatic reaction over time. Data obtained in the presence of 100 µM inhibitor were used to define maximal IRAP inhibition under these assay conditions, i.e., this slope was subtracted from those obtained at lower inhibitor concentrations. Data were fitted to a model for non-competitive inhibition within GraphPad and compared with models for competitive and uncompetitive binding. The non-competitive inhibition model explains the experimental data with a probability of 99.99%, compared to 0.01% and <0.01% for competitive and uncompetitive inhibition, respectively. […]

[2] = biological target: T3, human aminopeptidase N (APN) (Homo sapiens, UniProt P15144); test: Inhibition of human aminopeptidase N overexpressed in HEK293 cells; type: biochemical; details: for APN IC50 (µM)/pIC50: human aminopeptidase N overexpressed in HEK293 cells
T3 construct: expressed in transfected cells; host or cells: HEK293 / HEK293T cells, membrane preparations
T3 sequence (P15144 whole entry): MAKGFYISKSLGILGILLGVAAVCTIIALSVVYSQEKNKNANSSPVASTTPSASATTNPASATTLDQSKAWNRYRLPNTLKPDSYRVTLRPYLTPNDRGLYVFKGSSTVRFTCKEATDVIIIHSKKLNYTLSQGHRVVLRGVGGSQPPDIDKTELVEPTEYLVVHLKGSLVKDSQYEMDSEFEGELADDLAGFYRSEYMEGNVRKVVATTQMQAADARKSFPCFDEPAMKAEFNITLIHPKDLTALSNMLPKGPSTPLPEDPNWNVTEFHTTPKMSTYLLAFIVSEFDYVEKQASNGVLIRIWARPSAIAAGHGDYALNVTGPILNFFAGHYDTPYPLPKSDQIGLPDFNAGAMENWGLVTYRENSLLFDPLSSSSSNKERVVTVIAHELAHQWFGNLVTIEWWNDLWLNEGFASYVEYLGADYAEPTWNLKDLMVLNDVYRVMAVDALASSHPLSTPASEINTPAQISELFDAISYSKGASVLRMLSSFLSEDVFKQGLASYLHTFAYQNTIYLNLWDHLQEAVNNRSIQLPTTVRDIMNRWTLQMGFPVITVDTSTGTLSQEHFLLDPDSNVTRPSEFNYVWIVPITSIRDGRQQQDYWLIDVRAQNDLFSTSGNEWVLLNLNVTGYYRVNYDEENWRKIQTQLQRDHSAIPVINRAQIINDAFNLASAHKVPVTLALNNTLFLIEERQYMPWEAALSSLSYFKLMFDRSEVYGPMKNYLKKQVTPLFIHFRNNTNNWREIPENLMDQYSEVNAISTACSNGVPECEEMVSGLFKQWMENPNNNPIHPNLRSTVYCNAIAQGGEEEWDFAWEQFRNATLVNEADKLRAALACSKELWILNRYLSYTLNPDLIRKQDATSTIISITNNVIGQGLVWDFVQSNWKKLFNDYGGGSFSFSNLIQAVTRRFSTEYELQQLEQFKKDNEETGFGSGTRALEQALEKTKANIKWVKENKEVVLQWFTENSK
Description: as §1, §2, §3

IRAP [3] = tested on: IRAP; set-up: method as in PMID 27078680; details: jump-dilution experiments; cited from earlier work
[4] = biological target: T4, human recombinant soluble IRAP (sIRAP) (Homo sapiens, UniProt Q9UIQ6); test: Inhibition of human recombinant soluble IRAP (sIRAP); type: biochemical; details: human recombinant soluble enzyme
T4 construct: as well as the recombinant soluble enzyme (sIRAP)
T4 sequence (Q9UIQ6 155-1025 limits assumed): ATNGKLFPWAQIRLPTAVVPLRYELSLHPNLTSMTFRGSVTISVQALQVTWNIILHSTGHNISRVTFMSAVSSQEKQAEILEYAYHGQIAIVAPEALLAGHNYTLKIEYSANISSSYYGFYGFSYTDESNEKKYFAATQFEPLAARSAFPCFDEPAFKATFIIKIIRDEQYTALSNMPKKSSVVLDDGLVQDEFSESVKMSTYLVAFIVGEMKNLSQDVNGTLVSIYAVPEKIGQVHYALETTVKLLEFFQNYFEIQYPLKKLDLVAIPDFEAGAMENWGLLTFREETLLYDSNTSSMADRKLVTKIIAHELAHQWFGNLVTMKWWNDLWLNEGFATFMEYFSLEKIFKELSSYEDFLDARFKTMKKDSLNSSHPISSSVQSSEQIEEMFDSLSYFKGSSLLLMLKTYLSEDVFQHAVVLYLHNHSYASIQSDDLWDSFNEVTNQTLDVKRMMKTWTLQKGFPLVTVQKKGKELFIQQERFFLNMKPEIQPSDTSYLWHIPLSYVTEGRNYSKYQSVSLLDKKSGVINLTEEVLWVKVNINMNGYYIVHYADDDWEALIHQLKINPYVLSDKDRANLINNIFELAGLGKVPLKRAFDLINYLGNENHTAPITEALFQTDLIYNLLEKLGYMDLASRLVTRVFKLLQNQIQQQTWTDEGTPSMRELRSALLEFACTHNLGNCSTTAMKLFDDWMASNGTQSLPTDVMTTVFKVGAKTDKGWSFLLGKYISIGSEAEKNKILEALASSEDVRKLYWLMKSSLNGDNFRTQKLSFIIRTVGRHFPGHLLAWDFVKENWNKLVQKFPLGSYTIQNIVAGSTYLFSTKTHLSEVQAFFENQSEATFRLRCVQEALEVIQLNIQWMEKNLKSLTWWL
Source text: as §3

Human plasma stability = type: in vitro ADME; details: after 18 h incubation
Description: (§4) Pre-clinical profiling of the compounds was performed at AstraZeneca R&D in Gothenburg, Sweden, applying an integrated panel of assays referred to as the DMPK Wave 1 panel.

[5] = Dried DMSO solubility in aqueous phosphate buffer pH 7.4; type: physicochemical; details: thermodynamic from solid; aqueous phosphate buffer (PBS) at pH 7.4; read-out: Sol. (dried DMSO solubility)
Description: as §4

[6] = Human liver microsome intrinsic clearance; type: in vitro ADME; details: human liver microsomes; for microsomal CLint: read-out: HLM Clint; for half-life: read-out: HLM t ½
Description: as §4

[7] = Rat hepatocytes intrinsic clearance; type: in vitro ADME; details: for hepatocyte CLint: read-out: Rat hep. Clint; for half-life: read-out: Rat hep. t ½
Description: as §4

[8] = LogD7.4 (DMPK Wave 1 panel); type: physicochemical; details: pH 7.4; average ± SD of three test occasions
Description: as §4

[9] = Human plasma protein binding; type: in vitro ADME; details: read-out: PPB
Description: as §4

IC50 (human IRAP)	impact on the activity of human APN ([2]; at concentrations up to 125 µM)	IC50 [4]	Plasma Stab (Human plasma stability)	solubility [5]	microsomal CLint [6]	half-life [6]	hepatocyte CLint [7]	half-life [7]	logD [8]	fraction unbound [9]	Structure (SMILES)	mode of inhibition versus substrate (IRAP [1])	APN IC50 (µM)/pIC50 [2]	reversibility of binding to IRAP (IRAP [3])
1300 nM	no impact	1000 nM									COc1ccccc1-c1nc(C2CCCN2C(=O)N[C@@H](C)c2ccccc2)n2ccccc12 (mixture of isomers) [Compound 6a, 2-(1-(2-Methoxyphenyl)imidazo [1,5-a]pyridin-3-yl)-N-((S)-1-phenylethyl)pyrrolidine-1-carboxamide]	non-competitive binding with the substrate	neither compound showed any inhibitory activity; also recorded: inactive (2)	binds reversibly
50000 nM											COc1ccccc1-c1nc(C2CCCN2C(=O)N[C@H](C)c2ccccc2)n2ccccc12 (mixture of isomers) [Compound 6b, 2-(1-(2-Methoxyphenyl)imidazo [1,5-a]pyridin-3-yl)-N-((R)-1-phenylethyl)pyrrolidine-1-carboxamide]		neither compound showed any inhibitory activity; also recorded: inactive (2)	
			99 ± 5 % compound remaining	55 ± 12 µM (≈ 22.8 µg/mL)	> 300 µL/min/mg	< 2.3 min	> 300 µL/min/1e6 cells	< 2.3 min	2.9 ± 0.6	0.006 ± 0.001	COc1ccccc1-c1nc(CN(C)C(=O)N[C@@H](C)c2ccccc2)n2ccccc12 [Compound 6m, (S)-1-((1-(2-Methoxyphenyl)imidazo [1,5-a]pyridin-3-yl)methyl)-1-methyl-3-(1-phenylethyl)urea]			
			76 ± 6 % compound remaining	0.6 to 2 µM (≈ 0.266 to 0.885 µg/mL)	> 300 µL/min/mg	< 2.3 min	> 300 µL/min/1e6 cells	< 2.3 min	3.3 ± 0.4	0.007 ± 0.001	COc1ccccc1-c1nc(C2CCCN2C(=S)NCc2ccccc2)n2ccccc12 (stereo not drawn) [Compound 6v, N-Benzyl-2-(1-(2-methoxyphenyl)imidazo [1,5-a]pyridin-3-yl)pyrrolidine-1-carbothioamide]			
